Publication PMC12935787, “Clinical pharmacokinetics and pharmacometabolomics of Andrographis paniculata capsules: Bridging drug disposition and metabolic response to precision medicine” (Naunyn-Schmiedeberg's Archives of Pharmacology, 2025)
Where two headings read alike, the source gives them in different places.

What was measured:
[1] = Clinical pharmacokinetics, plasma LC-MS/MS after single oral dose of AP capsules; assay type: in vivo, human (healthy volunteers); conditions: for concentration at 10 h / concentration at 12 h / concentration at 24 h / concentration at 0 h / concentration at 0.5 h / concentration at 1 h / concentration at 1.5 h / concentration at 2 h / concentration at 2.5 h / concentration at 3 h / concentration at 3.5 h / concentration at 4 h / concentration at 5 h / concentration at 6 h / concentration at 8 h: oral, 2000 mg; for concentration at 10 h / concentration at 12 h / concentration at 24 h / concentration at 0 h / concentration at 0.5 h / concentration at 1 h / concentration at 1.5 h / concentration at 2 h / concentration at 2.5 h / concentration at 3 h / concentration at 3.5 h / concentration at 4 h / concentration at 5 h / concentration at 6 h / concentration at 8 h / Mean concentration: 2000 mg AP capsules
Experimental: The protocol was published (Tee et al. [2022]).
Seven calibrators ranging from 1, 2, 5,10, 20, 50, and 100 ng mL^−1 were prepared. Frozen plasma was thawed, vortexed-mixes, and processed via protein precipitation: 50 µL plasma plus 100 µL 0.01% ammonia in methanol were vortexed (20 s), centrifuged (14800 rpm, 5 min) and […] supernatant was transferred to 2 mL vials with inserts. LC–MS/MS injection volume: 10 µL. The separation used a Phenomenex Gemini-NX C18 column (150 × 2.1 mm, 5 μm) with 0.01% ammonia (A) and acetonitrile/methanol (1:1, B) as mobile phases (0.30 mL min^-1). The gradient program: 40% B (0 min), linear increase to 95% B (3 min), hold to 5 min, sharp decrease to 10% B (5.01 min), hold to 7 min, return to 40% B (7.01 min), and re-equilibration to 10 min. Mass detection employed an LCMS-8060NX triple quadrupole with heated ESI in negative mode, monitoring specific MRM transitions: andrographolide (349.3 → 331.2/287.1), 14-deoxyandrographolide (331.2 → 108.0/301.1), and neoandrographolide (479.1 → 317.4/161.1).
Pharmacokinetic parameters were determined from plasma samples (5 subjects, 15 time points) analyzed via LC–MS/MS (Shimadzu 8060NX). […] Specific MRM transitions for andrographolide, 14-deoxyandrographolide, and neoandrographolide in plasma samples of subjects are illustrated in Figure S3. […] The dose-dependent concentration–time curves, pharmacokinetics profiles (Fig. 2a, b and c) and comprehensive individual PK data (Table S4) provide a foundation for developing personalized AP dosing regimens, supporting its precision medicine potential.

[2] = design: method as in Songvut et al. [2023b]; conditions: ref Songvut et al. [2023b], cited from earlier work
[3] = design: method as in Panossian et al. [2000]; conditions: single dose of AP equivalent to 20 mg andrographolide; ref Panossian et al. [2000]; cited from earlier work
[4] = human, plasma, 2000 mg AP capsules oral, fasting, n=5
[5] = AP dose corresponding to 60 mg of andrographolide

`C=C1CC[C@@H]2[C@](C)(CO)[C@H](O)CC[C@@]2(C)[C@@H]1C/C=C1/C(=O)OC[C@H]1O` [andrographolide] showed a concentration at 10 h ([1]; human, plasma, S4, 10.00 h, read-out: Plasma concentration) of 0 ng/mL, a concentration at 12 h ([1]; human, plasma, S4, 12.00 h, read-out: Plasma concentration) of 0 ng/mL and a concentration at 24 h ([1]; human, plasma, S4, 24.00 h, read-out: Plasma concentration) of 0 ng/mL. For the same compound, the concentration at 0 h ([1]; human, plasma, S5, 0.00 h, read-out: Plasma concentration) was 0 ng/mL, the concentration at 0.5 h ([1]; human, plasma, S5, 0.50 h, read-out: Plasma concentration) was 0 ng/mL and the concentration at 1 h ([1]; human, plasma, S5, 1.00 h, read-out: Plasma concentration) was 0 ng/mL. It also gave a concentration at 1.5 h ([1]; human, plasma, S5, 1.50 h, read-out: Plasma concentration) of 2.52 ng/mL, a concentration at 2 h ([1]; human, plasma, S5, 2.00 h, read-out: Plasma concentration) of 3.77 ng/mL and a concentration at 2.5 h ([1]; human, plasma, S5, 2.50 h, read-out: Plasma concentration) of 3.17 ng/mL. For the same compound, the concentration at 3 h ([1]; human, plasma, S5, 3.00 h, read-out: Plasma concentration) was 2.38 ng/mL, the concentration at 3.5 h ([1]; human, plasma, S5, 3.50 h, read-out: Plasma concentration) was 1.59 ng/mL and the concentration at 4 h ([1]; human, plasma, S5, 4.00 h, read-out: Plasma concentration) was 0.54 ng/mL. The concentration at 5 h ([1]; human, plasma, S5, 5.00 h, read-out: Plasma concentration) was 1.62 ng/mL, the concentration at 6 h ([1]; human, plasma, S5, 6.00 h, read-out: Plasma concentration) was 1.12 ng/mL and the concentration at 8 h ([1]; human, plasma, S5, 8.00 h, read-out: Plasma concentration) was 0 ng/mL. The concentration at 10 h ([1]; human, plasma, S5, 10.00 h, read-out: Plasma concentration) was 0 ng/mL, the concentration at 12 h ([1]; human, plasma, S5, 12.00 h, read-out: Plasma concentration) was 0 ng/mL and the concentration at 24 h ([1]; human, plasma, S5, 24.00 h, read-out: Plasma concentration) was 0 ng/mL. For the same compound, the concentration at 0 h ([1]; human, plasma, mean n=5, 0.00 h, read-out: Mean concentration) was 0 ng/mL, the concentration at 0.5 h ([1]; human, plasma, mean n=5, 0.50 h, read-out: Mean concentration) was 8.62 ng/mL and the concentration at 1 h ([1]; human, plasma, mean n=5, 1.00 h, read-out: Mean concentration) was 7.7 ng/mL. It also gave a concentration at 1.5 h ([1]; human, plasma, mean n=5, 1.50 h, read-out: Mean concentration) of 10.2 ng/mL, a concentration at 2 h ([1]; human, plasma, mean n=5, 2.00 h, read-out: Mean concentration) of 6.21 ng/mL and a concentration at 2.5 h ([1]; human, plasma, mean n=5, 2.50 h, read-out: Mean concentration) of 3.4 ng/mL. For the same compound, the concentration at 3 h ([1]; human, plasma, mean n=5, 3.00 h, read-out: Mean concentration) was 3.02 ng/mL, the concentration at 3.5 h ([1]; human, plasma, mean n=5, 3.50 h, read-out: Mean concentration) was 1.3 ng/mL and the concentration at 4 h ([1]; human, plasma, mean n=5, 4.00 h, read-out: Mean concentration) was 0.11 ng/mL. It also gave a concentration at 5 h ([1]; human, plasma, mean n=5, 5.00 h, read-out: Mean concentration) of 0.32 ng/mL, a concentration at 6 h ([1]; human, plasma, mean n=5, 6.00 h, read-out: Mean concentration) of 0.22 ng/mL and a concentration at 8 h ([1]; human, plasma, mean n=5, 8.00 h, read-out: Mean concentration) of 0 ng/mL. The concentration at 10 h ([1]; human, plasma, mean n=5, 10.00 h, read-out: Mean concentration) was 0 ng/mL, the concentration at 12 h ([1]; human, plasma, mean n=5, 12.00 h, read-out: Mean concentration) was 0 ng/mL and the concentration at 24 h ([1]; human, plasma, mean n=5, 24.00 h, read-out: Mean concentration) was 0 ng/mL. For the same compound, the AUC(0-inf) [1, 4] was 20.9 ng·h/mL, the AUC(0-t) [1, 4] was 20.7 ng·h/mL and the Cmax [1, 4] was 10.2 ng/mL. For the same compound, the Tmax [1, 4] was 1.5 h, the half-life [1, 4] was 0.72 h and the Mean concentration ([1]; mean n=5, 0.00 h) was 0 ng/mL. The Mean concentration ([1]; mean n=5, 0.50 h) was 8.622 ng/mL, the Mean concentration ([1]; mean n=5, 1.00 h) was 7.6996 ng/mL and the Mean concentration ([1]; mean n=5, 1.50 h) was 10.145 ng/mL. It also gave a Mean concentration ([1]; mean n=5, 2.00 h) of 6.2104 ng/mL, a Mean concentration ([1]; mean n=5, 2.50 h) of 3.3999 ng/mL and a Mean concentration ([1]; mean n=5, 3.00 h) of 3.0233 ng/mL. The Mean concentration ([1]; mean n=5, 3.50 h) was 1.2987 ng/mL, the Mean concentration ([1]; mean n=5, 4.00 h) was 0.1073 ng/mL and the Mean concentration ([1]; mean n=5, 5.00 h) was 0.3249 ng/mL. For the same compound, the Mean concentration ([1]; mean n=5, 6.00 h) was 0.2247 ng/mL, the Mean concentration ([1]; mean n=5, 8.00 h) was 0 ng/mL and the Mean concentration ([1]; mean n=5, 10.00 h) was 0 ng/mL. The Mean concentration ([1]; mean n=5, 12.00 h) was 0 ng/mL, the Mean concentration ([1]; mean n=5, 24.00 h) was 0 ng/mL and the “Cmax, previously reported” value [2, 5] was 72.1 ± 28.7 ng/mL. The “Tmax, previously reported” value [2, 5] was 0.8 h, the “tolerance in human PK studies” value [2] was 180 to 360 mg/day and the “Tmax, previously reported” value [3] was 1.5 to 2 h.
